{
  "source": "patent US20050089535A1",
  "about": "“Delivery of biologically active agents” (priority 2002, published 2005)",
  "assay": "Use of the Weston needleless injector to evaluate penetration of the cervix (dye track)",
  "set-up": "species or system human",
  "conditions": "0.2 ml of 1 mg/ml methylene blue in phosphate buffered saline, Weston needleless injector held against ectocervix, ex vivo cervix from non-pregnant women",
  "method": "A Weston needleless injector was loaded with 0.2 ml of dye (1 mg/ml of methylene blue {Sigma} in phosphate buffered saline). Whole human cervix was obtained at hysterectomy from non-pregnant women of reproductive age. The cervix was tested within 30 minutes of removal from the patient. The needleless injector device was held against the ectocervix region. Increased pressure on the needleless injector activated the device. Two injections were performed for each specimen.\nThe cervix was dissected along the track of the injection (FIG. 2) and the length of the dye track was measured. In four experiments the length of the track was a mean of 6.1 mm (standard error of the mean=1.9 mm). The mean lateral spread (any signs of the blue dye) was 8.8 mm.",
  "data": [
    {"smiles": "CN(C)c1ccc2nc3ccc(=[N+](C)C)cc-3sc2c1", "note": "[dye, methylene blue]", "values": [
      {"measurement": "mean lateral spread (any signs of the blue dye)", "result": 8.8, "unit": "mm"},
      {"measurement": "length of the dye track (mean)", "setting": "four experiments, SEM 1.9 mm", "result": 6.1, "unit": "mm"}
    ]}
  ]
}
